Experimental data: ChEMBL document CHEMBL4364312, “Design, synthesis and biological evaluation of hydroxypyridinone-coumarin hybrids as multimodal monoamine oxidase B inhibitors and iron chelates against Alzheimer's disease” (Eur J Med Chem, 2019)

Legend:
physchem [1] = settings: DMSO:KCl
Description: Dissociation constant, pKa1 of compound for protonation of the 4-oxo group in DMSO:KCl at 30 uM/L incubated for 1 min by UV-Vis spectrophotometry

physchem [2] = settings: DMSO:KCl; remark: listed apart in the source
Description: Dissociation constant, pKa2 of compound for 3-(or 5-) hydroxyl group in DMSO:KCl at 30 uM/L incubated for 1 min by UV-Vis spectrophotometry

[3] = target: T1, Amine oxidase [flavin-containing] B (Homo sapiens, UniProt P27338); settings: 0.25 h, read-out: INH
T1 sequence (P27338 whole entry): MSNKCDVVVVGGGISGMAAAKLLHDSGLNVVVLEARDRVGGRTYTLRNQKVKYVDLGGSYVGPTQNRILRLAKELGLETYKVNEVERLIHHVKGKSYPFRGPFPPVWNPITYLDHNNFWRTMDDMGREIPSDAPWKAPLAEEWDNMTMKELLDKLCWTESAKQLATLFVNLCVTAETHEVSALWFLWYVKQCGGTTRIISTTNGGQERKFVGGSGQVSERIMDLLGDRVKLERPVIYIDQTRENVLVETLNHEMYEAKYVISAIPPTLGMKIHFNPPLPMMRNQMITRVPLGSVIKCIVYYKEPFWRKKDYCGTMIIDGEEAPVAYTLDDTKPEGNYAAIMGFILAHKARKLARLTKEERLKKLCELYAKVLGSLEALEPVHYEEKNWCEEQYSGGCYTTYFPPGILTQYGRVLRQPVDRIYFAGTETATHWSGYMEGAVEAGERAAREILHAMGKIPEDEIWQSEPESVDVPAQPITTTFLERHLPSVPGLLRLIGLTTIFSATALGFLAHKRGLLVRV
Description: Inhibition of recombinant human MAO-B expressed in baculovirus infected BTI insect cells at 10 uM incubated for 15 mins with substrate p-Tyramine by fluorescence assay relative to control

[4] = target: T1, Amine oxidase [flavin-containing] B; assay: biochemical
Description: Inhibition of recombinant human MAO-B expressed in baculovirus infected BTI insect cells incubated for 15 mins with substrate p-Tyramine by fluorescence assay

U-251 [5] = assay: Cytotoxicity against human U251 cells assessed as reduction in cell viability at 0.01 to 100 uM incubated for 24 hrs by MTS assay; format: cell-based; settings: u-251, 24 h
U-251 [6] = assay: Cytoprotective against H2O2-induced cell death in human U251 cells assessed as increase in cell viability at 100 uM preincubated for 24 hrs followed by H2O2 induction and measured after 1 hr by MTS assay (reference value: 50%); format: functional
Mus musculus [7] = assay: Cognition enhancement in scopolamine-induced impairment in ICR mouse assessed as number of times to enter target quadrant at 10 mg/kg, ip administered once daily for 2 weeks pretreated with scopolamine for 30 mins and measured at 5th day of training session by Morris water maze test (reference value: 9.0 +/- 0.8); format: functional
Mus musculus [8] = assay: Cognition enhancement in scopolamine-induced impairment in ICR mouse assessed as latency time at 10 mg/kg, ip administered once daily for 2 weeks pretreated with scopolamine for 30 mins and measured at 5th day of training session by Morris water maze test (reference value: 40.2 +/- 10.5 sec); format: functional
Mus musculus [9] = assay: Cognition enhancement in scopolamine-induced impairment in ICR mouse assessed as distance to target at 10 mg/kg, ip administered once daily for 2 weeks pretreated with scopolamine for 30 mins and measured at 5th day of training session by Morris water maze test (reference value: 10.4 +/- 1.2 meter); format: functional
[10] = Binding affinity to Fe3+ assessed as equilibrium binding constant logK2 in KCl pH 2 to 10.5 at 30 uM incubated for 20 mins by UV-Vis spectrophotometric method
[11] = Binding affinity to Fe3+ assessed as equilibrium binding constant logK3 in KCl pH 2 to 10.5 at […] 30 uM by UV-Vis spectrophotometric method

## C#CCOc1ccc2cc(Cn3ccc(=O)c(O)c3C)c(=O)oc2c1
Physchem [1]
  pKa at 1 min, 30 µM: 3.11
Physchem [2]
  pKa at 1 min, 30 µM: 9.58
[3]
  inhibition at 10 µM: 47.1%

## C#CCOc1ccc2cc(Cn3cc(O)c(=O)cc3C)c(=O)oc2c1
Physchem [1]
  pKa at 1 min, 30 µM: 3.07
Physchem [2]
  pKa at 1 min, 30 µM: 8.94
[3]
  inhibition at 10 µM: 50.6%

## C#CCOc1ccc2cc(Cn3ccc(=O)c(O)c3CC)c(=O)oc2c1
Physchem [1]
  pKa at 1 min, 30 µM: 2.95
Physchem [2]
  pKa at 1 min, 30 µM: 9.63
[3]
  inhibition at 10 µM: 78.1%
[4]
  IC50: 121 nM

## Cc1c(O)c(=O)ccn1Cc1cc2ccc(OCc3ccccc3)cc2oc1=O
Physchem [1]
  pKa at 1 min, 30 µM: 3.11
Physchem [2]
  pKa at 1 min, 30 µM: 9.61
[3]
  inhibition at 10 µM: 89.6%
[4]
  IC50: 336 nM

## COc1ccc2cc(Cn3ccc(=O)c(O)c3C)c(=O)oc2c1
Physchem [1]
  pKa at 1 min, 30 µM: 3.13
Physchem [2]
  pKa at 1 min, 30 µM: 9.66
[3]
  inhibition at 10 µM: 94.4%
[4]
  IC50: 91.9 nM

## CCc1c(O)c(=O)ccn1Cc1cc2ccc(OCc3ccc(F)cc3)cc2oc1=O
Physchem [1]
  pKa at 1 min, 30 µM: 3.15
Physchem [2]
  pKa at 1 min, 30 µM: 9.62
[3]
  inhibition at 10 µM: 91.6%
[4]
  IC50: 163 nM

## CCc1c(O)c(=O)ccn1Cc1cc2ccc(OC)cc2oc1=O
Physchem [1]
  pKa at 1 min, 30 µM: 3.09
Physchem [2]
  pKa at 1 min, 30 µM: 9.7
[3]
  inhibition at 10 µM: 50.7%

## Cc1c(O)c(=O)ccn1Cc1cc2ccc(OCc3cccc(F)c3)cc2oc1=O
Physchem [1]
  pKa at 1 min, 30 µM: 3.1
U-251 [5]
  Activity: Non-Toxic
Physchem [2]
  pKa at 1 min, 30 µM: 9.65
U-251 [6]
  Activity: 57.8%
Mus musculus [7]
  Activity: 16.6
Mus musculus [8]
  Time: 9.6 s
[3]
  inhibition at 10 µM: 81.3%
[4]
  IC50: 14.7 nM
Mus musculus [9]
  Activity: 4.2 m

## CCc1c(O)c(=O)ccn1Cc1cc2ccccc2oc1=O
Physchem [1]
  pKa at 1 min, 30 µM: 3.03
Physchem [2]
  pKa at 1 min, 30 µM: 9.7
[3]
  inhibition at 10 µM: 25%

## C#CCN(C)Cc1ccccc1 [PARGYLINE]
U-251 [6]
  Activity: 61.5%
Mus musculus [7]
  Activity: 16.3
Mus musculus [8]
  Time: 5.6 s
Mus musculus [9]
  Activity: 6.6 m

## Cc1c(O)c(=O)ccn1Cc1cc2ccc(OCc3cc(F)cc(F)c3)cc2oc1=O
Physchem [1]
  pKa at 1 min, 30 µM: 3.1
Physchem [2]
  pKa at 1 min, 30 µM: 9.54
[3]
  inhibition at 10 µM: 67.5%

## CCc1c(O)c(=O)ccn1Cc1cc2ccc(OCc3ccccc3)cc2oc1=O
Physchem [1]
  pKa at 1 min, 30 µM: 3.11
Physchem [2]
  pKa at 1 min, 30 µM: 9.71
[3]
  inhibition at 10 µM: 91.9%
[4]
  IC50: 129 nM

## Cc1cc(=O)c(O)cn1Cc1cc2ccccc2oc1=O
Physchem [1]
  pKa at 1 min, 30 µM: 3.14
Physchem [2]
  pKa at 1 min, 30 µM: 8.97
[3]
  inhibition at 10 µM: 6.8%

## O=C1O[C@H]([C@@H](O)CO)C(O)=C1O [ASCORBIC ACID]
U-251 [6]
  Activity: 57.6%

## COc1ccc2cc(Cn3cc(O)c(=O)cc3C)c(=O)oc2c1
Physchem [1]
  pKa at 1 min, 30 µM: 3.15
Physchem [2]
  pKa at 1 min, 30 µM: 9
[3]
  inhibition at 10 µM: 38.3%

## CCc1c(O)c(=O)ccn1Cc1cc2ccc(OCc3cccc(F)c3)cc2oc1=O
Physchem [1]
  pKa at 1 min, 30 µM: 3.12
Physchem [2]
  pKa at 1 min, 30 µM: 9.69
[3]
  inhibition at 10 µM: 91.9%
[4]
  IC50: 265 nM

## Cc1c(O)c(=O)ccn1Cc1cc2ccc(OCc3cccc(Cl)c3)cc2oc1=O
Physchem [1]
  pKa at 1 min, 30 µM: 3.17
Physchem [2]
  pKa at 1 min, 30 µM: 9.67
[3]
  inhibition at 10 µM: 21.2%

## CCc1c(O)c(=O)ccn1Cc1cc2ccc(OCc3cccc(Cl)c3)cc2oc1=O
Physchem [1]
  pKa at 1 min, 30 µM: 3.1
Physchem [2]
  pKa at 1 min, 30 µM: 9.76
[3]
  inhibition at 10 µM: 92.5%
[4]
  IC50: 425 nM

## Cc1c(O)c(=O)ccn1C [DEFERIPRONE]
Physchem [1]
  pKa at 1 min, 30 µM: 3.65
Physchem [2]
  pKa at 1 min, 30 µM: 9.89
[10]
  logKb: 27.7
[11]
  logKb: 37.3

## Cc1cc(=O)c(O)cn1Cc1cc2ccc(OCc3cccc(F)c3)cc2oc1=O
Physchem [1]
  pKa at 1 min, 30 µM: 3.15
Physchem [2]
  pKa at 1 min, 30 µM: 8.99
[3]
  inhibition at 10 µM: 85.8%
[4]
  IC50: 193 nM

## Cc1cc(=O)c(O)cn1Cc1cc2ccc(OCc3ccccc3)cc2oc1=O
Physchem [1]
  pKa at 1 min, 30 µM: 3.12
Physchem [2]
  pKa at 1 min, 30 µM: 9.03
[3]
  inhibition at 10 µM: 86.5%
[4]
  IC50: 290 nM

## Cc1cc(=O)c(O)cn1Cc1cc2ccc(OCc3ccc(F)cc3)cc2oc1=O
Physchem [1]
  pKa at 1 min, 30 µM: 3.26
Physchem [2]
  pKa at 1 min, 30 µM: 8.87
[3]
  inhibition at 10 µM: 87.6%
[4]
  IC50: 145 nM

## Cc1cc(=O)c(O)cn1Cc1cc2ccc(OCc3cccc(Cl)c3)cc2oc1=O
Physchem [1]
  pKa at 1 min, 30 µM: 3.16
Physchem [2]
  pKa at 1 min, 30 µM: 9.07
[3]
  inhibition at 10 µM: 82%
[4]
  IC50: 126 nM

## Cc1cc(=O)c(O)cn1Cc1cc2ccc(OCc3cc(F)cc(F)c3)cc2oc1=O
Physchem [1]
  pKa at 1 min, 30 µM: 3.11
Physchem [2]
  pKa at 1 min, 30 µM: 8.95
[3]
  inhibition at 10 µM: 68.1%

## Cc1c(O)c(=O)ccn1Cc1cc2ccccc2oc1=O
Physchem [1]
  pKa at 1 min, 30 µM: 3.07
Physchem [2]
  pKa at 1 min, 30 µM: 9.68
[3]
  inhibition at 10 µM: 22.4%

## CCc1c(O)c(=O)ccn1Cc1cc2ccc(OCc3cc(F)cc(F)c3)cc2oc1=O
Physchem [1]
  pKa at 1 min, 30 µM: 3.08
Physchem [2]
  pKa at 1 min, 30 µM: 9.7
[3]
  inhibition at 10 µM: 91.7%
[4]
  IC50: 223 nM
